Assays:
[1] = target: Cytochrome P450 3A4 (Homo sapiens, UniProt P08684); assay: Inhibition of CYP3A4 (unknown origin); type: ADME
[2] = target: Cytochrome P450 2D6 (Homo sapiens, UniProt P10635); assay: Inhibition of CYP2D6 (unknown origin); type: ADME
[3] = target: Cytochrome P450 2C19 (Homo sapiens, UniProt P33261); assay: Inhibition of CYP2C19 (unknown origin); type: ADME
[4] = target: Cytochrome P450 2C9 (Homo sapiens, UniProt P11712); assay: Inhibition of CYP2C9 (unknown origin); type: ADME
[5] = target: T1, Cytochrome P450 1A2 (Homo sapiens, UniProt P05177); assay: Inhibition of CYP1A2 (unknown origin); type: ADME
T1 sequence (P05177 whole entry): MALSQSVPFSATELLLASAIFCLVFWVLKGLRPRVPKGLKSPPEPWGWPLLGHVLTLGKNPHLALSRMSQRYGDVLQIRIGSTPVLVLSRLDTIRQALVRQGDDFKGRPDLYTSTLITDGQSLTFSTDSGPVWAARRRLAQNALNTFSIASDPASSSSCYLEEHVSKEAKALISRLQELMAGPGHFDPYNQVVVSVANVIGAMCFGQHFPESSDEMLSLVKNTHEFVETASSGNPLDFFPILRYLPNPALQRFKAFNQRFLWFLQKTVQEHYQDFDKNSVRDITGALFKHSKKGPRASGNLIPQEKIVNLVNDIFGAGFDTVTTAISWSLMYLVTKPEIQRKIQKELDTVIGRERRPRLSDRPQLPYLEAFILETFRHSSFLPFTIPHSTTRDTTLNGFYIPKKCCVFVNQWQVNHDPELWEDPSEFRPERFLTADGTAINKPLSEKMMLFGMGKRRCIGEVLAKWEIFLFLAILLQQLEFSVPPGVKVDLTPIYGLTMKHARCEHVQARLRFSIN

[6] = target: T2, Activin receptor type-1 (Homo sapiens, UniProt Q04771); assay: Inhibition of human ALK2 by […] assay
T2 sequence (Q04771 whole entry): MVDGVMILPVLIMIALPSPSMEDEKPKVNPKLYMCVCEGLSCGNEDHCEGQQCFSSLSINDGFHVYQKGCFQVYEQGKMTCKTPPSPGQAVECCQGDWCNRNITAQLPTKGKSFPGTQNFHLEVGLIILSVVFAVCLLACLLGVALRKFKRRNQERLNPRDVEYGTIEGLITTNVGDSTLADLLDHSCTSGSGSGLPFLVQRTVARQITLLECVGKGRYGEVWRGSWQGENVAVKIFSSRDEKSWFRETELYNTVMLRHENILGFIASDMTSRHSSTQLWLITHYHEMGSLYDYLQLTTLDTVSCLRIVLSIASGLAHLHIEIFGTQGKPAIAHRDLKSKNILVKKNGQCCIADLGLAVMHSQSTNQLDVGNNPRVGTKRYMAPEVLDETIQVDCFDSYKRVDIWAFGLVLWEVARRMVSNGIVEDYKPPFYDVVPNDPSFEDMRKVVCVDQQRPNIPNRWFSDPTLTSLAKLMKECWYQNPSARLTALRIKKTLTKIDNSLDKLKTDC

[7] = target: T3, Cytochrome P450 1A2 (Mus musculus, UniProt P00186); assay: Inhibition of mouse CYP1A2; type: ADME
T3 sequence (P00186 whole entry): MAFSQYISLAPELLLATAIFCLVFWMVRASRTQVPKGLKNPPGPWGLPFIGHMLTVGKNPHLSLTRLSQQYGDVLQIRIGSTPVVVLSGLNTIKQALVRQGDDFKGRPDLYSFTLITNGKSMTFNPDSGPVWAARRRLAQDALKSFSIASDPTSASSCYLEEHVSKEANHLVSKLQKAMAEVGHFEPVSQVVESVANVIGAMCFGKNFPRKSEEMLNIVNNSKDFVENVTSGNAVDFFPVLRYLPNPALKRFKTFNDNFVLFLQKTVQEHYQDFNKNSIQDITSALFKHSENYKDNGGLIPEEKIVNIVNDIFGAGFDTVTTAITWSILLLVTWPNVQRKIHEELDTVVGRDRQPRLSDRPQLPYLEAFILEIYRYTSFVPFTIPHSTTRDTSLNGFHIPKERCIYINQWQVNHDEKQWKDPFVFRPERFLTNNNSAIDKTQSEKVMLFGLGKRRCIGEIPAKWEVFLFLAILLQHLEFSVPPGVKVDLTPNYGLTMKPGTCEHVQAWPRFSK

[8] = Inhibition of mouse CYP2C8; type: ADME
[9] = Inhibition of mouse CYP2C9; type: ADME
[10] = Inhibition of mouse CYP2D6; type: ADME
[11] = Inhibition of mouse CYP3A4; type: ADME
[12] = Stability of the compound in human plasma assessed as half life; type: ADME, cell-free
[13] = Stability of the compound in mouse plasma assessed as half life; type: ADME, cell-free
[14] = Metabolic stability in human liver microsomes assessed as intrinsic clearance; type: ADME, Microsome; settings: read-out: CLH
[15] = Cmax in BALB/c mouse at 10 mg/kg, po; type: ADME, organism-based; design: dose 10 mg/kg, route po; settings: in vivo
[16] = Total AUC in BALB/c mouse at 2 mg/kg, iv; type: ADME, organism-based; design: dose 2 mg/kg, route iv; settings: in vivo
[17] = Total AUC in BALB/c mouse at 10 mg/kg, po; type: ADME, organism-based; design: dose 10 mg/kg, route po; settings: in vivo
[18] = Tmax in BALB/c mouse at 10 mg/kg, po; type: ADME, organism-based; settings: in vivo
[19] = Half life in BALB/c mouse at 2 mg/kg, iv; type: ADME, organism-based; settings: in vivo
[20] = Half life in BALB/c mouse at 10 mg/kg, po; type: ADME, organism-based; settings: in vivo
[21] = Clearance in BALB/c mouse at 2 mg/kg, iv; type: ADME, organism-based; settings: in vivo
[22] = Volume of distribution in BALB/c mouse at 2 mg/kg, iv; type: ADME, organism-based; settings: in vivo
[23] = Oral bioavailability in BALB/c mouse at 10 mg/kg; type: ADME, organism-based; settings: in vivo
[24] = target: T4, TGF-beta receptor type-1 (Homo sapiens, UniProt P36897); assay: Inhibition of human ALK5 by Kinase Glo luminescence assay
T4 sequence (P36897 whole entry): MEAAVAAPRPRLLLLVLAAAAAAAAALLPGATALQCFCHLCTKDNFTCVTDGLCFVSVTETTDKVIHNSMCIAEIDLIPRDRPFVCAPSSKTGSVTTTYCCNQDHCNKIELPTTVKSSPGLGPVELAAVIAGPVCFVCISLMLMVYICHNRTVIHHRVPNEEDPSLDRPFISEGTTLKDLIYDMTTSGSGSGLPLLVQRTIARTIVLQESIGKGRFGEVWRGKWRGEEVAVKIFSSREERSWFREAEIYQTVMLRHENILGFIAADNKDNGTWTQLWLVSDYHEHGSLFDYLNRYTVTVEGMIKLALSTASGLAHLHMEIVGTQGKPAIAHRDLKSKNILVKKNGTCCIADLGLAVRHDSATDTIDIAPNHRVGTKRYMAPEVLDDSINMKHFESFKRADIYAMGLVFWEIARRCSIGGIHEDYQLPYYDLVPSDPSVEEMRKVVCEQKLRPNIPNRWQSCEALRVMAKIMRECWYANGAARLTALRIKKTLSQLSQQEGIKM

[25] = target: T4, TGF-beta receptor type-1; assay: Inhibition of ALK5 in human Hs-578T cells assessed as effect of TGF-beta-induced […] phosphorylation; type: cell-based

Cytochrome P450 2D6, sequence (P10635 whole entry): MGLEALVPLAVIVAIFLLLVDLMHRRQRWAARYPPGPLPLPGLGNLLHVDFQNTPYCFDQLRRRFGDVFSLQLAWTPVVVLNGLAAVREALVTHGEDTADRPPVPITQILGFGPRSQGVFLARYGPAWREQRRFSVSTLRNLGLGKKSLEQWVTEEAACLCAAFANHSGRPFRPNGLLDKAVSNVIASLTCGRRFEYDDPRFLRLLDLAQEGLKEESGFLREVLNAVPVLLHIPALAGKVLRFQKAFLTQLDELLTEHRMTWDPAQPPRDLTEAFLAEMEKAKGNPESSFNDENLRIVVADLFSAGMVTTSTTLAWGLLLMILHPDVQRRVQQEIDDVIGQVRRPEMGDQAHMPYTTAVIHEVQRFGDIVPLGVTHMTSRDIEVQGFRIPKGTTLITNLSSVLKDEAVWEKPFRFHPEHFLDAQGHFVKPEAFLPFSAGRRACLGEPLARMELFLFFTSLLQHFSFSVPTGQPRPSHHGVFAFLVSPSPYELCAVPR
Cytochrome P450 2C9, sequence (P11712 whole entry): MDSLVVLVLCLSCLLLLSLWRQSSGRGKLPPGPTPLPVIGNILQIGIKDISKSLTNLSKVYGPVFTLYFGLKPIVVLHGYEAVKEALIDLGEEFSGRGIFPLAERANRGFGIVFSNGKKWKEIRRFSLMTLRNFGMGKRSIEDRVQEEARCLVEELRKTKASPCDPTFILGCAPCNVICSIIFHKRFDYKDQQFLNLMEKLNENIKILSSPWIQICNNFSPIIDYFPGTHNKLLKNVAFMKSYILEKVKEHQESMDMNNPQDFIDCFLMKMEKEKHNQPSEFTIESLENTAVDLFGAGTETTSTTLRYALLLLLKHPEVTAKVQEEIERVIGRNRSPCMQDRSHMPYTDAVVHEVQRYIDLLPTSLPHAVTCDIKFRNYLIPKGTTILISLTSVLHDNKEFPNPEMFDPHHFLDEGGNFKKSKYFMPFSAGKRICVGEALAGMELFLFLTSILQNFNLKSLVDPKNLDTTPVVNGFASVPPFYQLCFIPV
Cytochrome P450 2C19, sequence (P33261 whole entry): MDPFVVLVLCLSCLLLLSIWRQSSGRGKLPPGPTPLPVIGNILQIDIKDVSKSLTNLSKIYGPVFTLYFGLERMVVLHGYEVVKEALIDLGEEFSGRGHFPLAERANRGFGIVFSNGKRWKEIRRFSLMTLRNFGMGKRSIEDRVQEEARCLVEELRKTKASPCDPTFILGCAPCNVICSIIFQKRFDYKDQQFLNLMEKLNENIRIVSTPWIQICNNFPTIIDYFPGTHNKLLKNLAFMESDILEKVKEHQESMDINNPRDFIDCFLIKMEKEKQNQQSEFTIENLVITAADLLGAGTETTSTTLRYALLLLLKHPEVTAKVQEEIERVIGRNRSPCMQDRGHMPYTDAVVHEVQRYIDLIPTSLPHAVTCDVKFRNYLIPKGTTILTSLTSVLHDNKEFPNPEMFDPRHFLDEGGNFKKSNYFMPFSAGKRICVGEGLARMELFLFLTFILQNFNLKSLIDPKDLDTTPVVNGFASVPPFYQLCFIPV
Cytochrome P450 3A4, sequence (P08684 whole entry): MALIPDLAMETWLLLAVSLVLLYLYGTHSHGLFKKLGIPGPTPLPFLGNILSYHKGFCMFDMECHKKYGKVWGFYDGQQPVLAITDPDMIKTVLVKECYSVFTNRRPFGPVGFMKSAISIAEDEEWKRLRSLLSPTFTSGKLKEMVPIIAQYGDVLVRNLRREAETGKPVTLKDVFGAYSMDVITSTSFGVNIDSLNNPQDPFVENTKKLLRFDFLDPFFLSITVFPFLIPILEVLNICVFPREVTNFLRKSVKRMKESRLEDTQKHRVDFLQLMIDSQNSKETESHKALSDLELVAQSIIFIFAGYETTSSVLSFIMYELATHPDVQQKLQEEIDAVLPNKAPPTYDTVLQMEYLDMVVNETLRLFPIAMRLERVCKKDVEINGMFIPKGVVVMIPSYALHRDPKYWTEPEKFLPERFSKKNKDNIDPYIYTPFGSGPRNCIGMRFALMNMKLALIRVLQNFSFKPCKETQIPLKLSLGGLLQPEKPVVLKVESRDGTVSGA

| IC50 [1] | IC50 [2] | IC50 [3] | IC50 [4] | IC50 [5] | IC50 [6] | Compound | also measured |
| --- | --- | --- | --- | --- | --- | --- | --- |
| > 10 µM | > 10 µM | > 10 µM | > 10 µM | > 10 µM | > 10 µM | Cc1cccc(-c2[nH]c(NCc3cccc(F)c3)nc2-c2ccc3c(cnn3C)c2)n1 | IC50 [7]: 71.5 µM; IC50 [8]: 34.1 µM; IC50 [9]: 27.8 µM; IC50 [10]: 26.2 µM; IC50 [11]: 20.5 µM; half-life [12]: > 2 h; half-life [13]: > 2 h; microsomal CLint [14]: 29.8 µL/min/mg; Cmax [15]: 1530 ng/mL; AUC [16]: 870 ng·h/mL; AUC [17]: 3030 ng·h/mL; Tmax [18]: 0.4 h; half-life [19]: 1.6 h; half-life [20]: 1.6 h; clearance [21]: 38.4 mL/min/kg; Vd [22]: 5.1 L/kg; bioavailability [23]: 69.6% |
| > 10 µM | > 10 µM | > 10 µM | > 10 µM | > 10 µM | – | Cc1cccc(-c2[nH]c(NCc3ccc(Cl)c(Cl)c3)nc2-c2ccc3[nH]ncc3c2)n1 | – |
| – | – | – | – | – | – | [2H]C([2H])([2H])n1ncc2cc(-c3nc(NCc4cccc(F)c4)[nH]c3-c3cccc(C)n3)ccc21 | IC50 [7]: 67 µM; IC50 [8]: 38.7 µM; IC50 [9]: 22.1 µM; IC50 [10]: 20.5 µM; IC50 [11]: 16 µM; half-life [12]: > 2 h; half-life [13]: > 2 h; microsomal CLint [14]: 23.1 µL/min/mg; Cmax [15]: 1720 ng/mL; AUC [16]: 1170 ng·h/mL; AUC [17]: 3940 ng·h/mL; Tmax [18]: 0.4 h; half-life [19]: 1.5 h; half-life [20]: 1.6 h; clearance [21]: 29 mL/min/kg; Vd [22]: 3.8 L/kg; bioavailability [23]: 67.6% |
| 8 µM | 4.8 µM | 3.6 µM | 0.5 µM | > 10 µM | – | Cc1cccc(-c2[nH]c(NCc3cccc(Cl)c3F)nc2-c2ccc3[nH]ncc3c2)n1 | – |
| > 10 µM | > 10 µM | > 10 µM | > 10 µM | 8.5 µM | > 10 µM | Cc1cccc(-c2[nH]c(NCc3cccc(F)c3)nc2-c2ccc3c(cnn3C(F)F)c2)n1 | – |
| > 10 µM | 4.1 µM | 4.3 µM | 0.4 µM | 8.6 µM | – | Cc1cccc(-c2[nH]c(NCc3ccc(F)c(F)c3)nc2-c2ccc3[nH]ncc3c2)n1 | – |
| > 10 µM | 5.8 µM | 3.3 µM | 0.5 µM | 8.7 µM | – | Cc1cccc(-c2[nH]c(NCc3ccc(F)cc3F)nc2-c2ccc3[nH]ncc3c2)n1 | – |
| – | – | – | – | – | – | Cc1cccc(-c2[nH]c(NCc3ccccc3F)nc2-c2ccc3[nH]ccc3c2)n1 | IC50 [24]: > 10 µM; IC50 [25]: > 0.3 µM |
| > 10 µM | > 10 µM | > 10 µM | > 10 µM | 9.4 µM | > 10 µM | Cc1cccc(-c2[nH]c(NCc3cccc(F)c3)nc2-c2ccc3c(cnn3S(C)(=O)=O)c2)n1 | IC50 [25]: > 0.3 µM |
| > 10 µM | 8.8 µM | 7.2 µM | 1.4 µM | > 10 µM | – | Cc1cccc(-c2[nH]c(NCc3ccccc3F)nc2-c2ccc3[nH]ncc3c2)n1 | – |
| 8.7 µM | 6.7 µM | 3.1 µM | 0.4 µM | 8.8 µM | – | Cc1cccc(-c2[nH]c(NCc3ccc(Cl)cc3F)nc2-c2ccc3[nH]ncc3c2)n1 | – |
| > 10 µM | 6.7 µM | 8.6 µM | 1.1 µM | > 10 µM | > 10 µM | Cc1cccc(-c2[nH]c(NCc3cccc(F)c3)nc2-c2ccc3[nH]ncc3c2)n1 | – |
| – | – | – | – | – | > 10 µM | CCn1ncc2cc(-c3nc(NCc4cccc(F)c4)[nH]c3-c3cccc(C)n3)ccc21 | – |
| > 10 µM | 6.9 µM | 4.3 µM | 0.6 µM | > 10 µM | – | Cc1cccc(-c2[nH]c(NCc3cccc(F)c3F)nc2-c2ccc3[nH]ncc3c2)n1 | – |

Reference: ChEMBL document CHEMBL5252597, “Synthesis and biological evaluation of N-(3-fluorobenzyl)-4-(1-(methyl-d3)-1H-indazol-5-yl)-5-(6-methylpyridin-2-yl)-1H-imidazol-2-amine as a novel, potent ALK5 receptor inhibitor” (Bioorg Med Chem Lett, 2023)
